Data set [1] has as its system miR-146b. The experiment in a line: qRT-PCR of miR-146b in gastrocnemius of drug-treated mdx23 mice. The settings on record: 5 mg/kg prednisolone or 15 mg/kg VBP-15. The class given is in vivo, mouse. On the procedure:
(§1) FIG. 8—Treatment with anti-inflammatories modulates dystrophin-targeting microRNAs. (a) VBP15 and prednisolone reduces dystrophin-targeting microRNA levels; miR-146a, miR-146b and miR-223 levels in the gastrocnemius of wild-type mice and vehicle, prednisolone, or […] mdx23 mice were assessed via qPCR; results were normalized to wild-type levels. […] All statistical analyses were performed in Prism Graph Pad 5.0, One-Way ANOVA with Bonferroni post-test (*p<0.05; **p<0.01).
(§2) 20 mg frozen muscle was homogenized in TriZol reagent (Invitrogen), followed by RNA extraction. microRNAs were quantified with 7900HT Fast Real-Time PCR system using mouse-specific TaqMan microRNA assays with U6 snRNA as a control. Results were calculated as above using the 2(−ΔΔC(T)) method (Schmittgen, 2001).
(§3) Mdx23 (C57BL/10ScSn-Dmd/J) mice (The Jackson laboratories) were dosed with 5 mg/kg prednisolone or 15 mg/kg […] as previously reported (Heier et al, 2013).
(§4) Exon skipping therapies in DMD will likely be used in combination with either current glucocorticoid standards of care, or next-generation steroid derivatives moving towards clinical use (Heier et al 2012). Because these drugs affect transcriptional regulation and/or inflammatory miRNA signaling, we tested what their effects on levels of dystrophin-regulating miRNAs might be.

The test system of data set [2] is miR-146a. The experiment in a line: qRT-PCR of miR-146a in gastrocnemius of drug-treated mdx23 mice. The class given is in vivo, mouse. The settings on record: 5 mg/kg prednisolone or 15 mg/kg VBP-15, p<0.01. The procedure: as §1, §2, §3, §4
Data set [3] relates to miR-223. The experiment in a line: qRT-PCR of miR-223 in gastrocnemius of drug-treated mdx23 mice. The class given is in vivo, mouse. The note with it: 5 mg/kg prednisolone or 15 mg/kg VBP-15. On the procedure: as §1, §2, §3, §4
Data set [4] has as its system miR-320a. The experiment in a line: qRT-PCR of miR-320a in gastrocnemius of drug-treated mdx23 mice. The class given is in vivo, mouse. The note with it: 5 mg/kg prednisolone or 15 mg/kg VBP-15, p=0.22 for prednisone. On the procedure: as §1, §2, §3, §4
The subject of data set [5] is miR-382. The experiment in a line: qRT-PCR of miR-382 in gastrocnemius of drug-treated mdx23 mice. Format: in vivo, mouse. The settings on record: 5 mg/kg prednisolone or 15 mg/kg VBP-15, p<0.05 for prednisone. On the procedure:
as §1, §2, §3, §4

In data set [6] the test system is dystrophin protein. The experiment in a line: Systemic delivery of PMO to mdx23 mice, dystrophin rescue by SILAM mass spectrometry and immunoblot. The settings on record: single 800 mg/kg intravenous injection, 1 month post-injection, SILAM mass spectrometry. Format: in vivo, mouse. The procedure:
FIG. 7—Dystrophin-regulating microRNAs levels promote observed variability of dystrophin protein production in PMO-treated mdx mice. (a) Dystrophin levels were analyzed via mass spec and miRNA levels were assessed in the diaphragm, TA and Gastroc. […] All statistical analyses were performed in Prism Graph Pad 5.0, One-Way ANOVA with Bonferroni post-test (*p<0.05; **p<0.01; ***p<0.001). (b) The tricep, TA and gastroc in 3 PMO-treated mice were chosen for analysis. Dystrophin levels were analyzed via mass spec and microRNA levels were analyzed via qPCR. For analysis, Each miRNA's values were grouped by muscle, mean and SD were calculated. The deviation from the appropriate mean was calculated for each individual miRNA value. These deviations were assigned a score of low, mid or high, defined by the following rule: those falling within 0.5 SD of the mean were assigned a “mid” score, those greater than 0.5 SD of the mean were assigned a “high score”, and those less than 0.5 SD of the mean were assigned a “low” score. Mean % dystrophin levels were then compared using an independent t-test. […]
We tested whether variable levels of dystrophin-regulating microRNAs in muscle […] of dystrophin rescue by exon skipping. […] From one mouse, adjacent cryosections of the tibialis anterior (TA), gastrocnemius, and diaphragm muscles were analyzed for dystrophin protein content by SILAM mass spectrometry (Brown et al. 2013) and immunoblotting, and for dystrophin-regulating microRNA content by TaqMan (real time PCR) assays (FIG. 7a).

Data set [7] has as its system human dystrophin 3′UTR. The experiment in a line: Dys 3′UTR luciferase reporter assay in C2C12 myoblasts co-transfected with microRNA mimics. The class given is cell-based, mouse. The settings on record: C2C12 myoblasts co-transfected with 200 ng Dys 3′UTR reporter and 50 nM microRNA mimic, Renilla luciferase normalized to internal control.

Entries after “also recorded” stand apart in the source; their conditions may differ.

The record followed here is patent US9637738B2, “Methods and agents to increase therapeutic dystrophin expression in muscle” (Reveragen Biopharma, Inc., priority 2013, dated 2017).

Regarding `C[C@@H]1CC2C3CCC4=CC(=O)C=C[C@]4(C)C3=CC[C@]2(C)[C@@]1(O)C(=O)CO` (stereo partly drawn) [VBP-15, (10S,13S,16R,17R)-17-hydroxy-17-(2-hydroxyacetyl)-10,13,16-trimethyl-6,7,8,10,12,13,14,15,16,17-decahydro-3H-cyclopenta[a]phenanthren-3-one], in data set [1], the “miR-146b levels over untreated mice” value is on record as “trend of decreases”. Also, the “miR-146a levels over untreated mice” value in data set [2] was “significantly reduced”. In addition, the “miR-223 levels over untreated mice” value in data set [3] is “trend of decreases”.
As for `C[C@]12C=CC(=O)C=C1CC[C@@H]1[C@@H]2[C@@H](O)C[C@@]2(C)[C@H]1CC[C@]2(O)C(=O)CO` [prednisone, prednisolone], the “miR-320a levels, increase in treated mice” value in data set [4] is “increased”. Also, in data set [1], the “miR-146b levels over untreated mice” value was “trend of decreases”. For the same molecule, the “miR-146a levels over untreated mice” value in data set [2] was “significantly reduced”. In data set [5], the “miR-382 levels, increase in treated mice” value is “increased”. In addition, the “miR-223 levels over untreated mice” value in data set [3] was “trend of decreases”.
“exon 23-targeting morpholino: PMO (Gene Tools): 5′-GGCCAAACCTCGGCTTACCTGAAAT-3′ (SEQ ID NO:33) (all phosphorodiamidate morpholino (PMO); listed as Mus musculus)”: in data set [6], the “dystrophin rescue in diaphragm” value came to 5 % wild-type levels, the “dystrophin rescue in gastrocnemius” value is given as 5 % wild-type levels and the “dystrophin rescue in tibialis anterior (TA)” value came out at 40 % wild-type levels.
Take “miR-146a: microRNA mimic; hsa-miR-146a 3′-UUGGGUACCUUAAGUCAAGAGU-5′ (SEQ ID NO: 1) (listed as RNA, chemistry not given here; listed 3' to 5'; listed as Homo sapiens)”: the “luciferase protein expression from Dys 3′UTR reporter” value (“luciferase protein expression” below) in data set [7] is reported as “significantly inhibited”.
Turning to “miR-146b-5p: microRNA mimic; hsa-miR-146b-5p 3′-UCGGAUACCUUAAGUCAAGAGU-5′ (SEQ ID NO: 3) (listed as RNA, chemistry not given here; listed 3' to 5'; listed as Homo sapiens)”, the “luciferase protein expression” value is reported as “significantly inhibited” in data set [7] and “most potent downregulation; also recorded: strong inhibition” in data set [7] (listed as miR-146b).
On to “miR-223: microRNA mimic; hsa-miR-223 3′-ACCCCAUAAACUGUUUGACUGU-5′ (SEQ ID NO: 5) (listed as RNA, chemistry not given here; listed 3' to 5'; listed as Homo sapiens)”, for which the “luciferase protein expression” value in data set [7] is reported as “significantly inhibited”.
As for “miR-320a: microRNA mimic; hsa-miR-320a 3′-AGCGGGAGAGUUGGGUCGAAAA-5′ (SEQ ID NO: 7) (listed as RNA, chemistry not given here; listed 3' to 5'; listed as Homo sapiens)”, the “luciferase protein expression” value in data set [7] is “significantly inhibited”.
The same measure, in the same setting: as for “miR-374a: microRNA mimic; hsa-miR-374a 3′-GUGAAUAGUCCAACAUAAUAUU-5′ (SEQ ID NO: 9) (listed as RNA, chemistry not given here; listed 3' to 5'; listed as Homo sapiens)”, the entry is “significantly inhibited; also recorded: most potent downregulation; also recorded: strong inhibition”; as for “miR-382: microRNA mimic; hsa-miR-382 3′-GCUUAGGUGGUGCUUGUUGAAG-5′ (SEQ ID NO: 14) (listed as RNA, chemistry not given here; listed 3' to 5'; listed as Homo sapiens)”, “significantly inhibited”.
